Assay results reported in PubChem BioAssay (NCI).
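Five compound concentrations were applied to cells in 96-well plates for 48 hours; endpoints were derived by simple linear interpolation of the resulting dose-response curve. TGI: total growth inhibition.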

What was measured:
Test in all cases: NCI tumour cell line growth inhibition, 48 h
T-47D breast = test system: T-47D breast
KM12 colon = test system: KM12 colon
SR leukemia = test system: SR leukemia
CCRF-CEM leukemia = test system: CCRF-CEM leukemia
UO-31 renal = test system: UO-31 renal
DU-145 prostate = test system: DU-145 prostate
EKVX NSCLC = test system: EKVX NSCLC
HT29 colon = test system: HT29 colon
ACHN renal = test system: ACHN renal
CAKI-1 renal = test system: CAKI-1 renal
HCC-2998 colon = test system: HCC-2998 colon
OVCAR-4 ovarian = test system: OVCAR-4 ovarian

SMILES | TGI (T-47D breast) [µM] | TGI (KM12 colon) [µM] | TGI (SR leukemia) [µM] | TGI (CCRF-CEM leukemia) [µM] | TGI (UO-31 renal) [µM] | TGI (DU-145 prostate) [µM] | TGI (EKVX NSCLC) [µM] | TGI (HT29 colon) [µM] | TGI (ACHN renal) [µM] | TGI (CAKI-1 renal) [µM] | TGI (HCC-2998 colon) [µM] | TGI (OVCAR-4 ovarian) [µM]
COc1cccc(C2c3cc4c(cc3OC(N3CCCC3)C2C)OCO4)c1OC (stereo not drawn) | 39.3 | 15.1 | 15.2 | 16.9 | 7.51 | 11.5 | 97.8 | 11.3 | 16.8 | 3.15 | – | –
C=CCCCC12CCCc3cccc(c31)NC2=O (stereo not drawn) | – | 35.6 | > 100 | > 100 | 87.6 | – | 37.3 | – | 86.4 | – | 30.8 | 39.8
COc1ccc(NC2Oc3cc4c(cc3C(c3cc(OC)c(OC)c(OC)c3)C2C)OCO4)cc1 (stereo not drawn) | – | > 31.6 | – | > 100 | 22.1 | > 91.4 | 34.1 | > 100 | > 38.5 | > 91.5 | – | > 100
CCN(CCCN(CC)C(=O)N[C@@H](Cc1ccccc1)C(=O)NC)C(=O)N[C@@H](Cc1ccccc1)C(=O)NC | > 100 | > 100 | > 100 | – | > 100 | > 100 | > 100 | > 100 | > 100 | > 100 | > 100 | > 100
Cc1ccc(C2=Nc3c(c(C)nn3-c3ccccc3)N=C(C(=O)O)C2)cc1 | > 10 | > 10 | – | > 10 | > 10 | > 10 | > 10 | > 10 | > 10 | > 10 | > 10 | > 10
O=C1CC(c2ccc([N+](=O)[O-])cc2)C2(C(=O)NC(=S)NC2=O)C(c2ccc([N+](=O)[O-])cc2)C1 (stereo not drawn) | 96.3 | 36.3 | > 100 | > 100 | 63.1 | 83.3 | 82.9 | > 100 | 40.4 | – | 49.8 | > 100
CC(C)c1c(P(=O)(c2ccccc2)c2ccccc2)n(C)c2ccccc12 | > 100 | > 100 | > 100 | > 100 | > 100 | > 100 | > 100 | > 100 | > 100 | – | > 100 | > 100
Cc1ccc(C(=O)Nc2ccc(CP(=O)(O)O)cc2)cc1NC(=O)c1cccc(NC(=O)Nc2cccc(C(=O)Nc3cc(C(=O)Nc4ccc(CP(=O)(O)O)cc4)ccc3C)c2)c1 | > 100 | > 100 | – | > 100 | > 100 | > 100 | > 100 | > 100 | > 100 | > 100 | > 100 | > 100
O=C(CCc1ccc(O)cc1)c1c(O)cc(O)cc1OC1OC(CO)C(O)C(O)C1O (stereo not drawn) | > 100 | > 100 | – | – | > 100 | > 100 | > 100 | > 100 | > 100 | > 100 | > 100 | > 100
COC(c1ccc(C(C)(C)C)cc1)(c1ccc(C(C)(C)C)cc1)c1cc(C(O)(c2cc(C(OC)(c3ccc(C(C)(C)C)cc3)c3ccc(C(C)(C)C)cc3)c(C)cc2C)c2cc(C(OC)(c3ccc(C(C)(C)C)cc3)c3ccc(C(C)(C)C)cc3)c(C)cc2C)c(C)cc1C | > 100 | – | > 100 | > 100 | > 100 | > 100 | > 100 | > 100 | – | > 100 | > 100 | > 100
O=C1/C(=C/c2ccc(Br)s2)NC(=S)N1CN1CCOCC1 | > 100 | > 100 | 55.2 | – | > 100 | > 100 | > 100 | > 100 | > 100 | 66.5 | > 100 | > 100
O=c1nc2c(c(-c3cccc(Cl)c3)[nH]1)COC/C2=C\c1cccc(Cl)c1 | > 100 | > 100 | > 100 | > 100 | > 100 | > 100 | > 100 | – | > 100 | > 100 | > 100 | > 100
O=C(OCc1ccccc1)OOC(=O)OCc1ccccc1 | – | > 100 | > 100 | > 100 | > 100 | – | > 100 | > 100 | > 100 | > 100 | > 100 | > 100
O=C(O)CNC(=O)c1ccc([As](=O)(O)O)cc1 | > 100 | > 100 | – | > 100 | > 100 | > 100 | > 100 | > 100 | > 100 | > 100 | – | > 100
Cc1nc(Cl)c(CBr)c(Cl)n1 | 4.5 | 2.72 | 0.554 | 0.772 | 3.2 | 8.33 | 11.8 | – | 3.15 | 4.01 | 11.5 | 3.56
CC(C)CCNC(=O)c1ccc(CNC(=O)/C=C/c2ccc(OCc3ccccc3)cc2)cc1 | > 100 | > 100 | > 100 | > 100 | > 100 | > 100 | – | > 100 | > 100 | > 100 | > 100 | > 100
CC(=O)Nc1ccc(Cl)c(Cl)c1 | – | > 100 | > 100 | > 100 | > 100 | – | > 100 | > 100 | > 100 | – | > 100 | –
Nc1ncnc2c1ncn2C(=O)NC12CC3CC(CC(C3)C1)C2 | > 100 | > 100 | – | > 100 | > 100 | > 100 | > 100 | > 100 | > 100 | > 100 | > 100 | > 100
CO/N=C1/c2sccc2[C@H](NC(=O)CNC(=O)OC(C)(C)C)[C@@H]1O | > 100 | – | > 100 | > 100 | > 100 | > 100 | > 100 | > 100 | – | > 100 | > 100 | > 100
O=C1C(Cl)N(c2ccccc2)C1c1c[nH]c2ccccc12 (stereo not drawn) | – | > 100 | > 100 | > 100 | > 100 | – | > 100 | > 100 | – | – | – | > 100
CSc1c(C(=O)Nc2ccc(C)cc2)c(N)[nH]c(=O)c1C#N | > 100 | > 100 | > 100 | > 100 | > 100 | > 100 | > 100 | > 100 | – | > 100 | > 100 | > 100
